Results as given in ChEMBL document CHEMBL4622904, “The discovery of azetidine-piperazine di-amides as potent, selective and reversible monoacylglycerol lipase (MAGL) inhibitors” (Bioorg Med Chem Lett, 2020).

Assays:
[1] = molecular target: Plasma kallikrein (Homo sapiens) (UniProt P03952); assay: Inhibition of kallikrein (unknown origin) at 10 uM relative to control
[2] = molecular target: Prothrombin (Homo sapiens) (UniProt P00734); assay: Inhibition of thrombin (unknown origin) at 10 uM relative to control
Chymase (Homo sapiens) = molecular target: T1, Chymase (Homo sapiens) (UniProt P23946); assay: Inhibition of chymase (unknown origin) at 10 uM relative to control
T1 sequence (whole entry): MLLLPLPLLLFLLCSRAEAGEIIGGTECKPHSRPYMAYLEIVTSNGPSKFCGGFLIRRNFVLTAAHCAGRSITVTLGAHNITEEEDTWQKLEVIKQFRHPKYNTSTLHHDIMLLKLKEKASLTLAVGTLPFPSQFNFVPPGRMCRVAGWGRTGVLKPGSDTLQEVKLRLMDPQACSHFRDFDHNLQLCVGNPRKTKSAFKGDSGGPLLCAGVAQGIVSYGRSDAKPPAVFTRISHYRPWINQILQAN

[3] = molecular target: T2, Cathepsin G (Homo sapiens) (UniProt P08311); assay: Inhibition of cathepsin G (unknown origin) at 10 uM relative to control
T2 sequence (whole entry): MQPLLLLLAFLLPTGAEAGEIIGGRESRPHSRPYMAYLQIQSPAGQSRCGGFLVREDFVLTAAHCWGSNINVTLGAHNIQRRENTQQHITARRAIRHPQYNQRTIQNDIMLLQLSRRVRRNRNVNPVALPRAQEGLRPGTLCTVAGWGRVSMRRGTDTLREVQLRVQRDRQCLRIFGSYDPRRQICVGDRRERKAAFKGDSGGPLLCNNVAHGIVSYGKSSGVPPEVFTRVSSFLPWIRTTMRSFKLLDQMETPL

[4] = molecular target: T3, Myeloblastin (Homo sapiens) (UniProt P24158); assay: Inhibition of proteinase 3 (unknown origin) at 10 uM relative to control
T3 sequence (whole entry): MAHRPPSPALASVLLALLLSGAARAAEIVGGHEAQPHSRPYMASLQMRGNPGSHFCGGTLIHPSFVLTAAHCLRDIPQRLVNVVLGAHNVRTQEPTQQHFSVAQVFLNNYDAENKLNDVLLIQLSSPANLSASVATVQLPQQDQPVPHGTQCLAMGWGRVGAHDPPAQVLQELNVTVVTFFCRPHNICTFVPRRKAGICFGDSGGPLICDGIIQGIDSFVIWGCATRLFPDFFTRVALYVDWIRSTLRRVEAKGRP

[5] = molecular target: T4, Coagulation factor VII (Homo sapiens) (UniProt P08709); assay: Inhibition of factor 7a (unknown origin) at 10 uM relative to control
T4 sequence (whole entry): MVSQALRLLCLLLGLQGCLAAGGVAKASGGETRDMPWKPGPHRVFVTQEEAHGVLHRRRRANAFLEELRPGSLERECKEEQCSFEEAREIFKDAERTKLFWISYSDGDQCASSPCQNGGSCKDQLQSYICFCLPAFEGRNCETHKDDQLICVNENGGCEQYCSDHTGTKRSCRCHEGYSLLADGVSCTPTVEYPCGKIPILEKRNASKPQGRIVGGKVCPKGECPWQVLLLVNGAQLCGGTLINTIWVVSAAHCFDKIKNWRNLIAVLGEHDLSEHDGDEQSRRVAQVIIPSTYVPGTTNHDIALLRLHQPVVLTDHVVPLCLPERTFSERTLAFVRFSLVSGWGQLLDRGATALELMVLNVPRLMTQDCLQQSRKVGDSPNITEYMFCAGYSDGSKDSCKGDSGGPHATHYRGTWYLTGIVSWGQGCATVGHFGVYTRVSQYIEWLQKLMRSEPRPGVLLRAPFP

[6] = molecular target: Urokinase-type plasminogen activator (Homo sapiens) (UniProt P00749); assay: Inhibition of urokinase (unknown origin) at 10 uM relative to control
Bacteria = assay: Inhibition of bacterial streptokinase at 10 uM relative to control
Trypsin (Homo sapiens) = Trypsin (Homo sapiens) (UniProt P07477+P07478+P35030); assay: Inhibition of trypsin (unknown origin) at 10 uM relative to control; type: protein assay
[7] = molecular target: Coagulation factor X (Homo sapiens) (UniProt P00742); assay: Inhibition of factor 10a (unknown origin) at 10 uM relative to control
[8] = AUClast in rat at 10 mg/kg, po; type: ADME, organism-based; parameters: dose 10 mg/kg, route oral, time 0 - last; settings: in vivo
[9] = Half life in rat at 10 mg/kg, po; type: ADME, organism-based; settings: in vivo
[10] = Clearance in rat at 10 mg/kg, po; type: ADME, organism-based; settings: in vivo
[11] = Volume of distribution at steady state in rat at 10 mg/kg, po; type: ADME, organism-based; settings: in vivo
[12] = Oral bioavailability in dog at 10 mg/kg; type: ADME, organism-based, Canis lupus familiaris; settings: in vivo
[13] = Tmax in dog at 10 mg/kg, po; type: ADME, organism-based, Canis lupus familiaris; settings: in vivo
[14] = Cmax in dog at 10 mg/kg, po; type: ADME, organism-based, Canis lupus familiaris; parameters: dose 10 mg/kg, route oral; settings: in vivo
[15] = AUClast in dog at 10 mg/kg, po; type: ADME, organism-based, Canis lupus familiaris; parameters: dose 10 mg/kg, route oral, time 0 - last; settings: in vivo
[16] = Half life in dog at 10 mg/kg, po; type: ADME, organism-based, Canis lupus familiaris; settings: in vivo
[17] = Clearance in dog at 10 mg/kg, po; type: ADME, organism-based, Canis lupus familiaris; settings: in vivo
[18] = Volume of distribution at steady state in dog at 10 mg/kg, po; type: ADME, organism-based, Canis lupus familiaris; settings: in vivo
[19] = Oral bioavailability in monkey at 10 mg/kg; type: ADME, organism-based, Macaca mulatta; settings: rhesus monkey, in vivo
[20] = Tmax in monkey at 10 mg/kg, po; type: ADME, organism-based, Macaca mulatta; settings: rhesus monkey, in vivo
[21] = Cmax in monkey at 10 mg/kg, po; type: ADME, organism-based, Macaca mulatta; parameters: dose 10 mg/kg, route oral; settings: rhesus monkey, in vivo
[22] = AUClast in monkey at 10 mg/kg, po; type: ADME, organism-based, Macaca mulatta; parameters: dose 10 mg/kg, time 0 - last, route oral; settings: rhesus monkey, in vivo
[23] = Half life in monkey at 10 mg/kg, po; type: ADME, organism-based, Macaca mulatta; settings: rhesus monkey, in vivo
[24] = Clearance in monkey at 10 mg/kg, po; type: ADME, organism-based, Macaca mulatta; settings: rhesus monkey, in vivo
[25] = Volume of distribution at steady state in monkey at 10 mg/kg, po; type: ADME, organism-based, Macaca mulatta; settings: rhesus monkey, in vivo

Sequence of Plasma kallikrein (Homo sapiens) (P03952 20-390 limits assumed): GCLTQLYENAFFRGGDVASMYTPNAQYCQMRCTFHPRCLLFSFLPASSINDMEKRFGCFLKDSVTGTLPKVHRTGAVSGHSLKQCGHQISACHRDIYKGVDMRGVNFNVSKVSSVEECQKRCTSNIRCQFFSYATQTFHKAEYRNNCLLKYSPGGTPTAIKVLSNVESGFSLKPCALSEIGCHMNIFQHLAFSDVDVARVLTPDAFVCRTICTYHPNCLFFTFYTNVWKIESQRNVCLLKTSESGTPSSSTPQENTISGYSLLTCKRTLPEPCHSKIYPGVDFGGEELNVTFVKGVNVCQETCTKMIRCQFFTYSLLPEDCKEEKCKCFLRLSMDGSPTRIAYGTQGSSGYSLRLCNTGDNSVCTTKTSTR
Sequence of Plasma kallikrein (Homo sapiens) (P03952 391-638 limits assumed): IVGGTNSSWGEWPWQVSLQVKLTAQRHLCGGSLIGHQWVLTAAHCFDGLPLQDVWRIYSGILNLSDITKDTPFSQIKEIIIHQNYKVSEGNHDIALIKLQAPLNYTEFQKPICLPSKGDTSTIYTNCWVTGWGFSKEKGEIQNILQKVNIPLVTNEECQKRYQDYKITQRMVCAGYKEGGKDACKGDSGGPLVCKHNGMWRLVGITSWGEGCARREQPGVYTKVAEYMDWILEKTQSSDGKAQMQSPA
Sequence of Coagulation factor X (Homo sapiens) (P00742 41-179 limits assumed): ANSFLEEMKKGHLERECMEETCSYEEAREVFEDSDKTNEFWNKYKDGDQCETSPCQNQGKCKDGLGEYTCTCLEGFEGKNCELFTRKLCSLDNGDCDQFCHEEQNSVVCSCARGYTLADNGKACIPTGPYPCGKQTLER
Sequence of Coagulation factor X (Homo sapiens) (P00742 235-488 limits assumed): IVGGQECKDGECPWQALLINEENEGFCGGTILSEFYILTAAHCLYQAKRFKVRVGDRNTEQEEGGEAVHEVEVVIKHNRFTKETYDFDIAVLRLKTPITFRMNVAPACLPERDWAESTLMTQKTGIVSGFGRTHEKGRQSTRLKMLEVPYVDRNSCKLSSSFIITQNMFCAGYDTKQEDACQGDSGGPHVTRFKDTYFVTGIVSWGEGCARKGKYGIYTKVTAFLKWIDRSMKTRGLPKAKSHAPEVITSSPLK

## O=C(c1ccc2c(ccn2-c2ccc(F)cc2)c1)N1CC(N2CCN(C(=O)c3nccs3)CC2)C1
[1]
  inhibition: 4%
[2]
  inhibition: -1%
Chymase (Homo sapiens)
  inhibition: 11%
[3]
  inhibition: 13%
[4]
  inhibition: 7%
[5]
  inhibition: -5%
[6]
  inhibition: 2%
Bacteria
  inhibition: 1%
Trypsin (Homo sapiens)
  inhibition: -10%
[7]
  inhibition: 0%
[8]
  AUC(0-t): 3730 ng·h/mL
[9]
  half-life: 6.82 h
[10]
  CL/F: 19.2 mL/min/kg
[11]
  Vdss: 1.22 L/kg
[12]
  bioavailability: 79%
[13]
  Tmax: 2 h
[14]
  Cmax: 2860 ng/mL
[15]
  AUC(0-t): 33600 ng·h/mL
[16]
  half-life: 7.46 h
[17]
  CL/F: 4.35 mL/min/kg
[18]
  Vdss: 0.56 L/kg
[19]
  bioavailability: 82%
[20]
  Tmax: 2.67 h
[21]
  Cmax: 5300 ng/mL
[22]
  AUC(0-t): 33500 ng·h/mL
[23]
  half-life: 4.62 h
[24]
  CL/F: 4.46 mL/min/kg
[25]
  Vdss: 0.429 L/kg
